# In publication PMC10541198, “Specific quinone reductase 2 inhibitors reduce metabolic burden and reverse Alzheimer’s disease phenotype in mice” (The Journal of Clinical Investigation, 2023):
# “And” between values parts separate entries of the source, which are not always exact repeats. Equal values may be shown once.
# Tested on: Amyloid β
# Test: IHC of amyloid β in 5xFAD brain sections
# Assay type: in vivo, mouse
# Details: for Amyloid β normalized volume (individual mice): CA1, 5xFAD 1 month; for Figure 9B, IHC signal / Sup. Fig. 6-1B, IHC signal: individual animals; for Amyloid β vs vehicle: cortex, 5xFAD 1 month
# Description: Following the behavioral experiments, we assessed brain pathologies associated with AD present in the 5xFAD mice ([37]). Therefore, 5 days following the last behavioral experiment, and 1 month after the start of YB-537 consumption, mice were sacrificed, and coronal brain sections were used for IHC. Since the CA1 region of the hippocampus is affected during AD pathogenesis ([37]), and this brain region is involved in the behavioral paradigms used here, we acquired images of CA1. This was done with an Olympus IX83 confocal microscope using the same settings, antibodies, and exposures in all mice. Images were analyzed using Imaris (Bitplane; see methods). For each mouse, 3 coronal sections were used per antibody. In each section, the same region of CA1 was acquired, using the same image frame size and resolution, at all possible depths of the section — using a Z-stack of the whole section — to allow measurement of the fluorescent antibody marker volume, which was normalized to the brain volume from which it was taken. First, we measured oxidative stress, as indicated by 4-HNE ([38]) (Abcam, ab48506).
# Perfused and fixed brain slices were blocked with 10% normal donkey serum (DNS) and 0.2% triton (Sigma-Aldrich) in PBS. Antibodies, including 4-HNE (AbCam, ab48506), Iba1 (AbCam, ab5076), AT-8 (Thermo, MN1020), Amyloid β (AbCam, ab201060), diluted in PBS with 10% DNS, were incubated at 4°C overnight. Secondary antibodies including donkey-anti-goat Alexa Fluor 568 (AbCam, ab175704), donkey-anti-mouse Cy 5 (Jackson Immuno Research, 715-175-151), and donkey-anti-rabbit DyLight 488 (AbCam, ab98488) all diluted 1:500 in PBS with 1% BSA, were applied to the slices at RT for 2 hours the next day. Slices were mounted onto glass slides using DAPI containing Vectashield (H-1200). Images were taken using a confocal microscope (Olympus IX83). Three slices were used per mouse per antibody. Tiling images of the dorsal CA1 and cortex (Bregma: –1.58mm to –2.30mm) were taken using ×20 objective, acquiring a Z-stack of the whole section. Analysis of the images was done blind by an experimenter unaware of the experimental conditions or details, using Imaris (Bitplane) software. A surface reconstruction module was used to extract the data as volumes of the used markers (4-HNE, phospho-tau, amyloid β, GFAP, and Iba1). Marker volume and intensity were normalized to the corresponding brain volume. The normalized value was averaged for each triplicate and presented here. […]
# Brains were then briefly removed and placed in chilled, 4% PFA for 48 h, f oll owe d by immersion in 30% sucrose in 0.1 M PBS for a furt her 48 h. Bra i ns wer e t h e n stored at -80°C, until t he y were sliced into 40µm coronal sections usinga Lei ca CM 1950cryostat. Sli ces were then washed x3 in PBS and bl oc ke d for 1 h at RT using 10% normal donkey serum (DNS) and 0.2% triton (Sigma-Aldrich) in PBS. Antibodies, including 4- HNE (1:500, AbCam, ab48506), Iba1 (1:2,000, AbCam, ab5076), GFAP (Abcam, ab53554), phospho- tau (1:1,000, Thermo, MN1020) and amyloid β (1:1,000, AbCam, ab201060) diluted in PBS with 10% DNS were incubated at 4°C overnight. The next day, the slices were washed x3 times in PBS, and secondary antibodies including donkey anti goat A l e x a Fluor 568 (AbCam, ab175704), donkey anti-mouse Cy 5 (Jackson Immuno Research, 715- 175- 151) and donkey anti-rabbit DyLight 488 (AbCam, ab98488) all diluted 1:500 in PBS with 1% BSA, were applied to the slices at RT for 2 h. Following the incubation, the slices were washed x3 times in PBS, mounted onto gl ass slides, were uniformly covered in DAPI containing Vectashield (H-1200) and coverslips were a dde d. […]
smiles,measurement,setting,value
Cc1ccc(-c2cn3cccc(C)c3n2)cc1S(=O)(=O)N1CCNCC1 [YB-537],Amyloid β normalized volume (individual mice),Females,0.0438 and 0.0503 and 0.0630 and 0.0517 and 0.0415 and 0.0377 and 0.0224
same,Amyloid β normalized volume (individual mice),Males,0.0456 and 0.0411 and 0.0568 and 0.0482 and 0.0215 and 0.0315 and 0.0453 and 0.0211 and 0.0327
same,Amyloid β normalized volume (individual mice),Males + Females,0.0438 and 0.0503 and 0.0630 and 0.0315 and 0.0453 and 0.0211 and 0.0327 and 0.0456 and 0.0411 and 0.0568 and 0.0482 and 0.0215 and 0.0517 and 0.0415 and 0.0377 and 0.0224
same,"Figure 9B, IHC signal",Cortex,0.0014 and 0.0009 and 0.0012 and 0.0011 and 0.0040 and 0.0050 and 0.0062 and 0.0018 and 0.0015
same,"Sup. Fig. 6-1B, IHC signal",Females,0.0046 and 0.0222 and 0.0056 and 0.0307 and 0.0209 and 0.0044 and 0.0060
same,"Figure 9B, IHC signal",Hippocampus,0.0022 and 0.0020 and 0.0026 and 0.0016 and 0.0029 and 0.0072 and 0.0052 and 0.0013
same,"Sup. Fig. 6-1B, IHC signal",Males,0.0033 and 0.0053 and 0.0092 and 0.0140 and 0.0194 and 0.0050 and 0.0040 and 0.0079 and 0.0183
same,Amyloid β vs vehicle,females,unchanged
same,Amyloid β vs vehicle,males,insignificantly reduced
same,Amyloid β vs vehicle,total population,not significantly reduced
